Results published in US20190298664A1, “METHOD AND KIT FOR MYOCARDIAL REPERFUSION, AND METHOD FOR ATTENUATING OR REDUCING MYOCARDIAL REPERFUSION INJURY” (Academia Sinica, priority 2018, published 2019).

Assays:
Type in all cases: in vivo, mouse
Conditions in all cases: PVS 5 mg/kg intramyocardial at beginning of ischemia; ischemia 1 h, reperfusion 4 h
[1] = test system: myocardial protein tyrosine phosphorylation; assay: Immunoblotting of heart extracts of I/R mice (anti-pTyr, p-Paxillin, p-p130cas, p-ErbB-2)
Method: (§1) We anesthetized the mouse with 5% isoflurane mixed with room air until loss of sensation of pain and then maintained the mouse in anesthesia status with 2% isoflurane mixed with room air through the whole procedure. The mouse's body temperature was maintained at 37° C. by a heating pad. After the mouse was intubated, we provided artificial ventilation to the mouse with a small animal ventilator. Then the chest cavity was opened at the second intercostal space and homemade chest retractors were utilized to widen the incision. We pulled the pericardium apart carefully and exposed the left anterior descending artery (LAD). A 7-0 silk was put underneath the LAD at the position of the tip of the left auricle, a 6 mm length of PE-10 tube was put on the surface of the LAD, and then a double knot was made to occlude the blood flow of LAD. The success of ligation was confirmed by paling the anterior wall of the LV. For the reperfusion group, the LAD knot would be untied for the purpose of reperfusion after 1 hour of ischemia. For the sham operation group, all procedures were the same except for the knot that occluded the LAD flow. After the successful procedure, we left the silk in situ, closed the chest cavity and weaned the animal from the ventilator.
Hearts from mice received different treatment were gently homogenized in ice-cold RIPA buffer [250 mM Tris-HCl pH 7.4, 750 mM NaCl, detergent mix (5% NP-40, 2.5% Na-deoxycholate and 0.5% SDS), and 1× protease inhibitor cocktail (EDTA free)] containing phosphatase inhibitors (2 mM Na3VO4, 10 mM NaF, and 10 mM Na2P2O7). The homogenates were centrifuged at 16,100×g at 4° C. for 10 minutes to remove the debris. Protein concentrations were determined by Bradford protein assay. Equal amounts of protein extract from those mice were separated by SDS-PAGE on an 8% or 10% polyacrylamide gel and then transferred to PVDF membrane. Membranes were incubated with indicated primary antibody at 4° C. overnight followed by incubated with secondary antibodies for 1 hour at room temperature. The protein abundance was detected by the signal intensity of each specific band.

I/R mice [2] = assay: Myocardial infarct size (Evans blue/TTC staining) in I/R mice
Method: as §1
At the end of experiment, the animal was sacrificed. We opened the chest cavity and exposed the heart and aorta. The heart was perfused with 0.9% saline from the apex until the coronary vessels and myocardium turning into pale color. After saline perfusion, the LAD knot was tied again. 1 mL of 1% Evans blue dye was delivered into the heart through the aortic root by retrograde injection. The dye uniformly perfused the whole heart except in the area of the heart previously perfused by the occluded coronary artery (area at risk, AAR). Then the heart was quickly removed, washed in ice-cold 0.9% saline followed by frozen at −20° C. for 20 minutes, then cut into slices of 1 mm with heart matrix. […] The areas stained with Evans blue negative but TTC-positive (AAR), and TTC-negative area (infarct area) were all measured digitally by ImageJ software. […]

I/R mice [3] = assay: Serum troponin I measurement in I/R mice
Method: as §1
Before the mouse was sacrificed, blood was drawn from the facial vein. The blood was put in the room temperature for 30 minutes and then centrifuged at 4° C. for 15 minutes at 5000 rpm. After centrifuging, the serum is collected for troponin I measurement with troponin I ELISA kit (KT-469, Kamiya Biomedical Company) according to the manufacture's protocol.

Structure (SMILES): C=CS(=O)(=O)c1ccccc1 [PVS, phenyl vinyl sulfone]
- I/R-caused tyrosine dephosphorylation of myocardial proteins [1]: rebounded
- Area of heart infarction (I/R mice [2]): reduced
- Release of troponin I into the blood (I/R mice [3]): decreased
